Results on three molecules are retold here after patent US20160287613A1, “SALICYLATES FOR USE IN THE TREATMENT OF CANCER” (priority 2013, published 2016).

Assay [1] concerns bladder cancer cell line RT 112. The assay is described as follows: Lactate transport (export): enzymatic determination of lactate in supernatants at 340 nm. It is filed as cell-based, human. Conditions: RT 112, 0.2 mM albumin, pH 6.5 to 7.4, FIG. 1a/b. Here is the method: The human bladder tumor cell line RT112 or the human chronic myeloid leukemia cell line K562 were purchased from DKFZ Tumorzell- und datenbank (Institut für experimentelle Pathologie, Heidelberg, FRG) or DSM (Deutsche Sammlung von Mikroorganismen und Zellkulturen GmbH, Braunschweig, FRG) supplemented with 2 mM L-glutamine (BIOCHROM, Berlin, FRG), 1% NEAE (BIOCHROM), 10% heat-inactivated fetal calf serum (BIOCHROM), 100 U/ml penicillin and 50 μg/ml Streptomycin (BIOCHROM) at 37 oc and 5% co2. Only mycoplasma-free cell cultures were used; this was frequently tested using a specific detection kit (BOEHRINGER MANNHEIM, Mannheim, FRG). Qualitative, Enzymatic Determination of Lactate in Supernatants of RT112 Cells at 340 nm RT112 cells were harvested, washed twice and re-suspended in culture media to yield a density of 2×10^5/ml. 500 μl/well of the RT112 cell suspension were seeded into 24 well microtiter plates (BD) and incubated over night at 37° C. and 5% C˜. The Supernatant was replaced by 450 pl pH-adjusted culture medium (pH 6.0-7.4) and 50 111 of the solution of preferred substances or 500 111/well pH-adjusted culture medium alone (control). Again, the cells were incubated for 24 hat 37° C. and 5% CO2. The measurement of lactate in the supernatants at 340 nm (PERKIN-ELMER, Lambda 17. UV-VIS Spectrophotometer, Überlingen, FRG) was performed according to the manufacturer's instructions (SIGMA DIAGNOSTICS, Deisenhofen, FRG; Lactate: Quantitative, Enzymatic Determination of Lactate in Whole Blood at 340 nm (Procedure No. 826-UV)).

In a further assay the test system is RT 112 cancer cells. The assay is described as follows: Proliferation, [3H]-TdR (3H-thymidine) incorporation assay. It is filed as cell-based, human. Conditions: FIG. 2a. As for the experimental part:
The human bladder tumor cell line RT112 or the human chronic myeloid leukemia cell line K562 were purchased from DKFZ Tumorzell- und datenbank (Institut für experimentelle Pathologie, Heidelberg, FRG) or DSM (Deutsche Sammlung von Mikroorganismen und Zellkulturen GmbH, Braunschweig, FRG) supplemented with 2 mM L-glutamine (BIOCHROM, Berlin, FRG), 1% NEAE (BIOCHROM), 10% heat-inactivated fetal calf serum (BIOCHROM), 100 U/ml penicillin and 50 μg/ml Streptomycin (BIOCHROM) at 37 oc and 5% co2. Only mycoplasma-free cell cultures were used; this was frequently tested using a specific detection kit (BOEHRINGER MANNHEIM, Mannheim, FRG). The influence of cytotoxic molecules on the proliferation of RT112 tumor cells was quantified by the measurement of the incorporated tritiated thymidine ([^3H]-TdR) into the cellular DNA of the tumor cells by liquid scintillation counting (LSC). In brief, RT112 cells are harvested, washed twice and re-suspended in culture media (2.5×10^5 /ml). 100 μl/well of the RT112 cell suspension were seeded into 96 well microtiter plates (BECTON DICKINSON) and incubated over night at 37 ° C. and 5% CO2. The supernatant was replaced by 90 μl pH-adjusted culture medium (pH 6.0-7.4) and 10 μl of the solution of preferred substances or 10 μl/well pH-adjusted culture medium alone (control). The cells were incubated for various time periods at 37° C. and 5% CO2. Thereafter, cells were washed twice and re-incubated in fresh pH-adjusted culture medium. And pulsed for 24 h by the addition of 23.125 kBq [^3]-TdR/well (925 kBq/ml, AMERSHAM, Braunschweig, FRG). After freezing and thawing, radioactive DNA of the cultures were transferred to glass fiber filters with an automatic cell harvester (PHARMACIA). The incorporated radioactivity was measured in a liquid scintillation counter (PHARMACIA).

The subject of the next assay is cancer cells. Kind of assay: Patient tests with high ASA doses. It is filed as in vivo, human. The conditions noted are these: high ASA doses of 90-120 mg/kg bodyweight. Here is the method: But in the course of tests it became apparent how to artificially activate the immune system to be conditioned for killing cancer cells in basic environment. The “protection factor” also can be eliminated by the administration of high ASA doses of between 90-120 mg/kg bodyweight of the patient. […] The administered doses that provide this effect are between 90-120 mg/kg bodyweight of the patient of ASA.

“Also recorded” adds a separate entry of the source.

Take `O=C(O)c1cc(-c2ccc(F)cc2F)ccc1O` [Diflunisal, 5-[2,4-difluorophenyl]-salicylic acid]: in assay [1], the “lactate efflux (export) compared to the Control” value is “produce stimulation of lactate export all over the pH range; also recorded: accelerate the lactate efflux all over the pH range from pH 6.5 to 7.4”. In addition, the “proliferation (3H-thymidine incorporation) vs control” value in the assay on RT 112 cancer cells (above pH 7.1, 0.2 mM albumin) was “produces enhancement”; in the assay on RT 112 cancer cells (up to pH 7.1, 0.2 mM albumin), “inhibits proliferation slightly”.
For `Nc1ccc(C(=O)O)c(O)c1` [PAS, 4-aminosalicylic acid], in assay [1], the “lactate efflux (export) compared to the Control” value was “accelerate the lactate efflux all over the pH range from pH 6.5 to 7.4”.
For `CC(=O)Oc1ccccc1C(=O)O` [ASA, acetylsalicylic acid], in assay [1], the “lactate efflux (export) compared to the Control” value is recorded as “produce stimulation of lactate export all over the pH range; also recorded: accelerate the lactate efflux all over the pH range from pH 6.5 to 7.4”. In the assay with cancer cells, the “"protection factor" of cancer cells against immune attack” value is listed as “eliminated” and the “proliferation of cancer cells” value was “proliferation was stopped”. The “proliferation (3H-thymidine incorporation) vs control” value with RT 112 cancer cells (ASA at 1 mM and 2 mM, pH 6.5-7.4, 0.2 mM albumin) is “appreciable enhancement of proliferation”.
